Numbered stars: 1 amine (or outer) side, 2 acyl side, 3 side chain; on linkers, the order of the positions; unused ones are H or OH. Bridge positions count the residues as written; N and C are the ends. Square brackets hold non-standard residues; d marks the D form. Peptide text beside a SMILES is read from it. * marks the point of attachment. X1 = CC[C@H](C)[C@@H](N[*:1])[C@@H](O)CC(=O)O[C@H](C(=O)[C@H](C)C(=O)[*:2])C(C)C; NMeY = CN[C@@H](Cc1ccc(O)cc1)C(=O)O; dNMeL = CN[C@H](CC(C)C)C(=O)O; Pyruvoyl = CC(=O)C(=O)*
What was measured:
bladder carcinoma = bladder carcinoma in the hollow fiber; cited from earlier work
[1] = phase I/II trials; cited from earlier work
VEGF secretion = test: Quantification of VEGF secretion by ELISA; assay type: cell-based, human; settings: 20 nM
Source text: MM cell adhesion to BMSCs induces increased secretion of angiogenic cytokines, such as vascular endothelial growth factor (VEGF), an event deemed of major significance for the recruitment of new blood vessels at the sites of MM cells in the BM milieu. […] The supernatants were collected and assayed for VEGF concentration by enzyme-linked immunosorbent assay (ELISA) using a commercially available kit (VEGF ELISA kit; R&D Systems), according to the instructions of the manufacturer.

breast MX-1 = settings: mice bearing human xenografted tumors; cited from earlier work
[2] = test system: gastric, prostate and Burkitts lymphoma human xenografts; settings: subcutaneous implanted gastric; cited from earlier work
[3] = test system: multiple myeloma lines resistant to dexamethasone (MM 1.R); settings: cells in culture, XTT or MTS (FIG. 6)
Procedure: The cells used were: • multiple myeloma cells (MM1.S) • multiple myeloma lines resistant to dexamethasone (MM 1.R) • a multiple myeloma line overexpressing Bcl-2
For established cell lines, cells were plated in 96 well plates and allowed to grow for 24 h prior to addition of drugs. Cells were incubated with drug for indicated times and cell viability was measured by the XTT or MTS assay using an automated plate reader.

colon tumor cells = settings: cited from earlier work
[4] = solubilised aplidine; cited from earlier work
[5] = test system: primary MM tumor cells co-cultured with BMSCs; test: Co-culture of MM cells with bone marrow stromal cells, flow cytometry of viable CD138+ cells; assay type: cell-based, human; settings: 48 hours, flow-cytometric determination of cell death (FIG. 3)
Procedure: (§2) We therefore investigated whether aplidine can also overcome the molecular sequelae of the interaction of BMSCs with MM cells and achieve anti-MM activity in this context. We thus performed in vitro co-culture assays of MM cells with BMSCs as previously described: BMSCs were grown on 24-well plates to confluency. […] Flow cytometric analysis was performed to detect the CD138+ population of viable MM cells and the effect of aplidine on MM cell viability was expressed as % of viable cell numbers in comparison to the respective vehicle-treated cultures.

BMSCs = settings: at the aplidine doses used in the co-culture
Procedure: as §2

colon CX-1 = settings: mice bearing human xenografted tumors; cited from earlier work
[6] = test system: multiple myeloma line overexpressing Bcl-2; test: XTT or MTS cell viability assay, Bcl-2 overexpressing MM line; assay type: cell-based; settings: cells in culture, XTT or MTS (FIG. 7)
Procedure: Aplidine was tested against various established cells in culture.

[7] = test system: MM-1S human MM cells stably transfected with Bcl-2; test: MTT survival assay, Bcl-2-transfected MM-1S cells; assay type: cell-based; settings: Bcl-2-transfected MM-1S cells (FIG. 1)
Procedure: (§1) Cell survival was examined using the 3-(4,5-dimethylthiazol-2-yl)-2,5-diphenyltetrazolium bromide (MTT; Sigma Chemical, St Louis, Mo.) colorimetric assay, as previously described (Mitsiades C. S. et al. Blood. 2001, 98, 795-804; Mitsiades N. et al. Proc Natl Acad Sci USA. 2002, 99, 14374-14379; Mitsiades N. et al. Blood. 2003, 101, 2377-2380). Briefly, cells were plated in 48-well plates at 70% to 80% confluence in the presence of 2.5% fetal bovine serum (FBS) and in the presence of Aplidine at final concentration of 0-100 nM or DMSO vehicle control. At the end of each treatment, cells were incubated with 1 mg/mL MTT for 4 hours at 37° C.; a mixture of isopropanol and 1 N HCl (23:2, vol/vol) was then added under vigorous pipetting to dissolve the formazan crystals. Dye absorbance (A) in viable cells was measured at 570 nm, with 630 nm as a reference wavelength. Cell viability was estimated as a percentage of the value of untreated controls. All experiments were repeated at least 3 times, and each experimental condition was repeated at least in triplicate wells in each experiment. Data reported are average values±SD of representative experiments. […]

B16 melanoma = settings: murine tumors such as B16 melanoma; cited from earlier work
primary MM tumor cells [8] = test: MTT survival assay, primary MM tumor cells; assay type: cell-based, human; settings: 10 primary tumor specimens from multi-drug resistant MM patients; 20 nM for 48 hrs (FIG. 2)
Procedure: as §1

primary MM tumor cells [9] = test: MTT survival assay, combination with doxorubicin; assay type: cell-based, human; settings: aplidine 2 nM with doxorubicin 10 ng/mL, primary MM tumor sample (FIG. 5)
[10] = test system: MM-1S human MM cells stably transfected with myristoylated Akt; test: MTT survival assay, myrAkt-transfected MM-1S cells; assay type: cell-based; settings: myrAkt-transfected MM-1S cells (FIG. 1)
Procedure: as §1

[11] = test system: non-small-cell lung tumor cells; settings: cited from earlier work
human MM cell lines = test: MTT colorimetric survival assay, panel of MM cell lines; assay type: cell-based; settings: for the overwhelming majority of the MM cell lines of the panel (FIG. 1), read-out: IC50 doses
Procedure: as §1

[12] = test system: NCI human in vitro panel cell lines; settings: cited from earlier work

CC[C@H](C)[C@H]1NC(=O)[C@@H](NC(=O)[C@@H](CC(C)C)N(C)C(=O)[C@@H]2CCCN2C(=O)C(C)=O)[C@@H](C)OC(=O)[C@H](Cc2ccc(OC)cc2)N(C)C(=O)[C@@H]2CCCN2C(=O)[C@H](CC(C)C)NC(=O)[C@@H](C)C(=O)[C@H](C(C)C)OC(=O)C[C@@H]1O [Aplidine, Dehydrodidemnin B] (Pyruvoyl-P[dNMeL]T[X1]LP[NMeY](Me); ester 3-C)
in vivo antitumor activity (bladder carcinoma): in vivo antitumor activity
dose-limiting toxicity [1]: muscular toxicity
myelosuppression [1]: remarkable lack of severe myelosuppression
VEGF secretion when MM cells are co-cultured with BMSCs (VEGF secretion; 12-hour treatment, co-culture (FIG. 4B)): counteract the increase in VEGF secretion
secretion of VEGF by MM cells (VEGF secretion; 12-hour treatment, primary MM tumor cells (FIGS. 4A and 4B)): suppress the secretion of VEGF
VEGF secretion by BMSCs (VEGF secretion; 12 hrs, BMSCs (FIG. 4B)): suppresses the VEGF secretion
in vivo activity (breast MX-1): confirm activity
in vivo antitumor activity [2]: in vivo antitumor activity
growth inhibition of dexamethasone resistant MM1.R cells compared with MM1.S [3]: as effectively as the parenteral line (MM1.S)
IC50 (colon tumor cells): 0.45 nM
degradation under heat and light stress testing conditions [4]: substantial degradation
effect of MM-BMSC interaction on in vitro anti-MM activity [5]: did not significantly attenuate
survival of BMSCs (BMSCs): did not significantly affect
in vivo activity (colon CX-1): confirm activity
growth of Bcl-2 overexpressing MM cells [6]: inhibits growth
sensitivity to aplidine vs. empty-vector transfected cells [7]: did not have lower sensitivity
in vivo activity (B16 melanoma): in vivo activity
in vitro anti-MM activity (primary MM tumor cells [8]): consistent with the results obtained from the testing of our cell line panel
responsiveness of MM cells to doxorubicin in combination with Aplidine (primary MM tumor cells [9]): increased responsiveness to doxorubicin
sensitivity to aplidine vs. empty-vector transfected cells [10]: did not have lower sensitivity
IC50 [11]: 0.18 nM
IC50 (human MM cell lines): ≤ 10 nM
selectivity in the NCI human in vitro panel [12]: selectivity for non-small-cell lung cancer (NSCLC), melanoma, ovarian and colorectal cancer cell lines

Source: patent US7381703B2, “Aplidine for multiple myeloma treatment” (Dana-Faber Cancer Institute, Inc., priority 2003, dated 2008)
